Residues, ends and D or L forms follow the SMILES beside them.

Here are results for one compound from patent publication US20130072438A1, “OPIOID PEPTIDE ESTERS AND METHODS OF USE” (The United States Government as represented by the …, priority 2011, published 2013).

In the data set the test system is male Wistar rats. As to the kind of experiment: Cold immersion tail withdrawal latency after intraperitoneal dosing. The format is in vivo, rat. The following applies: for Trial 1 Latency (s), post-treatment cold immersion response / Trial 2 Latency (s), post-treatment cold immersion response / Trial 3 Latency (s), post-treatment cold immersion response: from 30 min post-dose, -20° C bath. On the procedure:
Three male Wistar rats at 8 weeks of age (Taconic Farms, Germantown, N.Y.) were utilized in the experiment. Each rat was grasped firmly, while the distal half of its tail was immersed in a liquid bath at a temperature of −20° C. Latency periods (in seconds) were measured from the time that tails were immersed to the time that the rat removed its tail from the liquid. Prior to dosing, rats were given three trials, approximately ten minutes apart. […] Post-dose trials were also approximately ten minutes apart. Animals were examined for acute adverse effects to both the cold liquid bath and the test article.

With `CCOC(=O)C1CCCN1C(=O)C(N)Cc1ccc(O)cc1` (stereo not drawn) [Tyr-Pro-Ethyl] (H-Tyr-Pro-OEt; configuration not given here), under “animal 1, 1 mg i.p.”, the “Mean latency of three trials, post-treatment cold immersion response” value (from here on “Mean latency of three trials”) came out at 15.6 s; the “Post-treatment mean with longest latency period eliminated” value (“Post-treatment mean” for short) is on record as 12.4; the “Trial 1 Latency (s), post-treatment cold immersion response” value (from here on “Trial 1 Latency (s)”) was determined as 13.2 s; the “Trial 2 Latency (s), post-treatment cold immersion response” value (“Trial 2 Latency (s)” below) came to 22.1 s. Also, the “Trial 3 Latency (s), post-treatment cold immersion response” value (shortened to “Trial 3 Latency (s)”) (animal 1, 1 mg i.p.) is 11.5 s. For the same compound, under “animal 2, 2 mg i.p.”, the “Mean latency of three trials” value is reported as 7.2 s; the “Post-treatment mean” value came out at 4.7; the “Trial 1 Latency (s)” value is on record as 4.7 s; the “Trial 2 Latency (s)” value came out at 4.7 s. The “Trial 3 Latency (s)” value (animal 2, 2 mg i.p.) is given as 12.2 s. Further, for the setting “animal 3, 0.5 mg i.p.”, the “Mean latency of three trials” value is given as 7.2167 s; the “Post-treatment mean” value worked out at 6.3; the “Trial 1 Latency (s)” value is 6.45 s; the “Trial 2 Latency (s)” value stood at 6.2 s. Also, for the setting “animal 3, 0.5 mg i.p.”, the “Trial 3 Latency (s)” value came out at 9.0 s. The “Crossing of the BBB” value (rats, at the doses given (0.5, 1, 2 mg i.p.), inferred from latency data) is on record as “able to cross the BBB”. The Hydrolysis by esterases result (rats, cerebrospinal fluid, inferred from latency data) was “hydrolyzed by esterases in the cerebrospinal fluid”. Also, under “rats, cold immersion, 0.5, 1, 2 mg i.p.”, the “Effect on sensitivity to noxious stimulus” value was “increase sensitivity to noxious stimulus”.
